In PubChem BioAssay (NCI):
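Assay format: 96-well plates, 48-hour exposure. TGI marks complete inhibition of growth.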

Assays:
Assay in all cases: inhibition of tumour cell growth, NCI panel, 48 h
[1] = system: A498 renal
[2] = system: DU-145 prostate
[3] = system: EKVX NSCLC
[4] = system: HL-60(TB) leukemia
[5] = system: HS 578T breast
[6] = system: LOX IMVI melanoma
[7] = system: M14 melanoma
[8] = system: MDA-N
[9] = system: MOLT-4 leukemia
[10] = system: NCI-H522 lung
[11] = system: NCI/ADR-RES ovarian
[12] = system: SF-268 CNS
[13] = system: SF-295 CNS
[14] = system: SK-MEL-5 melanoma
[15] = system: SN12C renal
[16] = system: SNB-75 CNS
[17] = system: T-47D breast
[18] = system: TK-10 renal
[19] = system: UACC-257 melanoma
[20] = system: UACC-62 melanoma

Clc1ccccc1/C=C/c1nsc(/C=C/c2ccccc2Cl)n1
TGI [1]: > 100 µM
TGI [2]: > 100 µM
TGI [3]: > 100 µM
TGI [4]: 52.5 µM
TGI [5]: > 100 µM
TGI [6]: > 100 µM
TGI [7]: > 100 µM
TGI [8]: > 100 µM
TGI [9]: > 100 µM
TGI [10]: > 100 µM
TGI [11]: > 100 µM
TGI [12]: > 100 µM
TGI [13]: > 100 µM
TGI [14]: > 100 µM
TGI [15]: 51.5 µM
TGI [16]: > 100 µM
TGI [17]: 42.8 µM
TGI [18]: 78.1 µM
TGI [19]: 64.1 µM

CC(=O)N1c2ccccc2C(C)(C)OC1C(Cl)(Cl)Cl (stereo not given)
TGI [1]: > 100 µM
TGI [2]: > 100 µM
TGI [3]: > 100 µM
TGI [4]: 36.7 µM
TGI [5]: > 100 µM
TGI [7]: > 100 µM
TGI [8]: 83.1 µM
TGI [9]: 35.5 µM
TGI [10]: 69.3 µM
TGI [11]: > 100 µM
TGI [12]: > 100 µM
TGI [13]: > 100 µM
TGI [14]: 53.4 µM
TGI [15]: > 100 µM
TGI [16]: 71.9 µM
TGI [17]: > 100 µM
TGI [18]: > 100 µM
TGI [19]: 84.3 µM
TGI [20]: > 100 µM

ClC(Cl)(Cl)C1CCOC1n1nc2ccccc2n1 (stereo not given)
TGI [1]: > 100 µM
TGI [2]: > 100 µM
TGI [3]: > 100 µM
TGI [4]: > 100 µM
TGI [5]: > 100 µM
TGI [7]: > 100 µM
TGI [8]: > 100 µM
TGI [9]: > 100 µM
TGI [10]: > 100 µM
TGI [11]: > 100 µM
TGI [12]: > 100 µM
TGI [13]: > 100 µM
TGI [14]: > 100 µM
TGI [15]: > 100 µM
TGI [16]: > 100 µM
TGI [17]: > 100 µM
TGI [18]: > 100 µM
TGI [19]: > 100 µM
TGI [20]: > 100 µM

N#C/C(=C1\N=C(c2ccccc2O)Oc2ccccc21)c1ccc([N+](=O)[O-])cc1
TGI [1]: > 100 µM
TGI [2]: > 100 µM
TGI [3]: > 100 µM
TGI [4]: > 100 µM
TGI [5]: > 100 µM
TGI [6]: > 100 µM
TGI [7]: > 100 µM
TGI [8]: > 100 µM
TGI [9]: > 100 µM
TGI [11]: > 100 µM
TGI [12]: > 100 µM
TGI [13]: > 100 µM
TGI [14]: > 100 µM
TGI [15]: > 100 µM
TGI [16]: > 100 µM
TGI [17]: > 100 µM
TGI [18]: > 100 µM
TGI [19]: > 100 µM
TGI [20]: > 100 µM

CCCCCCCCCCCCCCCC(=O)ON1C(=S)NC(C)(c2ccccc2)C1=S (stereo not given)
TGI [1]: > 100 µM
TGI [2]: > 100 µM
TGI [3]: > 100 µM
TGI [4]: > 100 µM
TGI [5]: > 100 µM
TGI [6]: > 100 µM
TGI [7]: 80.1 µM
TGI [8]: > 100 µM
TGI [9]: > 100 µM
TGI [11]: > 100 µM
TGI [12]: > 100 µM
TGI [13]: > 100 µM
TGI [14]: > 100 µM
TGI [15]: > 100 µM
TGI [16]: > 100 µM
TGI [17]: > 100 µM
TGI [18]: > 100 µM
TGI [19]: > 100 µM
TGI [20]: > 100 µM

CCOC(=O)C1(Cc2ccccc2)Cc2cc3c(cc2C1)CCC3
TGI [1]: > 100 µM
TGI [2]: > 100 µM
TGI [3]: > 100 µM
TGI [4]: 76.9 µM
TGI [5]: > 100 µM
TGI [6]: 43.9 µM
TGI [7]: > 100 µM
TGI [8]: > 100 µM
TGI [9]: 58.6 µM
TGI [10]: 96.2 µM
TGI [11]: > 100 µM
TGI [12]: > 100 µM
TGI [13]: 85.8 µM
TGI [15]: > 100 µM
TGI [17]: > 100 µM
TGI [18]: > 100 µM
TGI [19]: > 100 µM
TGI [20]: > 100 µM

CCOc1cc(/C=N\N(C)C)cc(/C=N\N(C)C)c1O
TGI [1]: > 100 µM
TGI [2]: > 100 µM
TGI [3]: > 100 µM
TGI [4]: > 100 µM
TGI [5]: > 100 µM
TGI [6]: 79.5 µM
TGI [7]: > 100 µM
TGI [8]: > 100 µM
TGI [9]: > 100 µM
TGI [11]: > 100 µM
TGI [12]: 61.2 µM
TGI [13]: > 100 µM
TGI [14]: 73.2 µM
TGI [15]: > 100 µM
TGI [16]: 77.7 µM
TGI [17]: > 100 µM
TGI [18]: > 100 µM
TGI [19]: > 100 µM
TGI [20]: > 100 µM

O=[N+]([O-])c1ccc(Cl)cc1-n1nc(-c2ccccc2)cc1-c1ccccc1
TGI [1]: > 100 µM
TGI [2]: > 100 µM
TGI [3]: > 100 µM
TGI [4]: > 100 µM
TGI [5]: > 100 µM
TGI [7]: > 100 µM
TGI [8]: > 100 µM
TGI [9]: > 100 µM
TGI [10]: > 100 µM
TGI [11]: > 100 µM
TGI [12]: > 100 µM
TGI [13]: > 100 µM
TGI [14]: > 100 µM
TGI [15]: > 100 µM
TGI [16]: > 100 µM
TGI [17]: > 100 µM
TGI [18]: > 100 µM
TGI [19]: > 100 µM
TGI [20]: > 100 µM

O/N=c1/ccn(O)c2ccccc12
TGI [1]: 1.75 µM
TGI [2]: 7.76 µM
TGI [3]: 11.2 µM
TGI [4]: 8.8 µM
TGI [5]: > 100 µM
TGI [6]: 5.67 µM
TGI [7]: 6.87 µM
TGI [8]: 17.5 µM
TGI [10]: 3.23 µM
TGI [11]: 4.7 µM
TGI [12]: 5.74 µM
TGI [13]: 2.9 µM
TGI [14]: 2.77 µM
TGI [15]: 5.7 µM
TGI [16]: 1.98 µM
TGI [17]: 10.3 µM
TGI [18]: 5.87 µM
TGI [19]: 21 µM
TGI [20]: 2.53 µM

COc1ccc(NC(=O)CC(=O)n2nc(C)c(N=Nc3ccc(C)c(C)c3)c2C)cc1
TGI [1]: > 100 µM
TGI [2]: > 100 µM
TGI [3]: 52 µM
TGI [4]: > 100 µM
TGI [5]: 97.4 µM
TGI [6]: > 100 µM
TGI [7]: > 100 µM
TGI [8]: > 100 µM
TGI [9]: > 100 µM
TGI [10]: > 100 µM
TGI [11]: > 100 µM
TGI [12]: > 100 µM
TGI [13]: > 100 µM
TGI [14]: > 100 µM
TGI [15]: > 100 µM
TGI [16]: 87 µM
TGI [17]: > 100 µM
TGI [18]: > 100 µM
TGI [20]: > 100 µM

CC(=O)OC1/C(=C/c2ccc([N+](=O)[O-])cc2)C[C@H]2[C@@H]3CC=C4C[C@@H](OC(C)=O)CC[C@]4(C)[C@H]3CC[C@]12C (stereo not given in full)
TGI [1]: > 96.2 µM
TGI [2]: > 100 µM
TGI [3]: > 100 µM
TGI [4]: 13.3 µM
TGI [5]: > 100 µM
TGI [6]: > 100 µM
TGI [7]: > 100 µM
TGI [8]: > 100 µM
TGI [10]: > 100 µM
TGI [11]: > 100 µM
TGI [12]: > 100 µM
TGI [13]: > 100 µM
TGI [14]: > 100 µM
TGI [15]: > 100 µM
TGI [17]: > 100 µM
TGI [18]: > 80.3 µM
TGI [19]: > 100 µM
TGI [20]: > 100 µM

Cc1nc(-c2ccccc2)c(C)n2c1nc1ccccc12
TGI [1]: > 100 µM
TGI [2]: > 100 µM
TGI [3]: > 100 µM
TGI [4]: 44.4 µM
TGI [5]: > 100 µM
TGI [6]: > 100 µM
TGI [7]: 46 µM
TGI [8]: > 100 µM
TGI [9]: > 100 µM
TGI [11]: 69.7 µM
TGI [12]: 98.7 µM
TGI [13]: > 100 µM
TGI [15]: > 100 µM
TGI [16]: 66.3 µM
TGI [17]: 45.3 µM
TGI [18]: 84 µM
TGI [19]: > 100 µM
TGI [20]: 41 µM
